In patent US10100079B2, “Progesterone-cationic lipid hybrid as anticancer agent and the process of synthesis thereof” (Council of Scientific & Industrial Research, priority 2016, dated 2018):
Like-named read-outs stand apart in the source and are kept apart here.

Columns and labels:
[1] = system: T47D; experiment: MTT cytotoxicity assay, T47D; format: cell-based; conditions: Homo sapiens, read-out: IC50 T47D
Description: (§1) All cells were grown into mycoplasma free condition. […] All cells were grown up to 75-85% confluency after which cells were trypsinized, counted and seeded, in 96-well plates for cell viability studies, 6-well plates for apoptosis studies, 60 mm dish for cell cycle studies and in 25 cm^2 or 75 cm^2 tissue culture flasks for Western blot studies. The primary stock of the cationic progesterone molecules were made in cell culture grade DMSO and from that secondary stock was prepared by serial dilution with cell culture grade DMSO. The final working concentrations were prepared by diluting the secondary stock in cell culture media keeping the DMSO concentration in working solution below 0.2% with respect to cell culture medium. […] For this assay, 12-18 h before treatment cells were plated in 96-well plate at 5000 cells/well density. […] After completion of the treatment, 10 μL of MTT solution (5 mg/mL) was added in each well and incubated for 4 h. Then the media was removed carefully, and the reduced MTT was dissolved in 1:1 (v/v) DMSO/Methanol and absorbance was measured using multimode reader (Synergy H1, BioTek). Results were represented as percentage of viability={[A550(treated cells)−background]/[A550(untreated cells)−background]}×100. The result was summarized and provided as IC50 table in Table 1.

[2] = system: MCF7; experiment: MTT cytotoxicity assay, MCF7; format: cell-based; conditions: Homo sapiens, read-out: IC50 MCF7
Description: as §1

[3] = system: CHO; experiment: MTT cytotoxicity assay, CHO; format: cell-based, Chinese hamster; conditions: Cricetulus griseus, read-out: IC50 CHO
Description: as §1

[4] = system: cancer cells T47D, OVCAR-3, MDA-MB-231, MCF-7 and B16F10; experiment: MTT viability, all tested cancer cells (combination treatment study, FIG. 1A); format: cell-based; conditions: 48 h; for toxicity in cancer cells: 10 μM (1+10C: 10 μM+10 μM)
Description: FIG. 1A: The viability studies of cancer cells T47D, OVCAR-3, MDA-MB-231, MCF-7 and B16F10 after 48 h of continuous treatment with compound 1 (10 μM), 10C [cationic lipid control molecule not containing progesterone moiety]
(§2) Cytotoxicity assay of the different compounds were carried out by using 3-(4,5-dimethylthiazol-2-yl)-2,5-diphenyltetrazolium bromide (MTT). For this assay, 12-18 h before treatment cells were plated in 96-well plate at 5000 cells/well density. After incubation cells were treated continuously for 48 h with respective compounds at different concentration (2.5 μM-40 μM). After completion of the treatment, 10 μL of MTT solution (5 mg/mL) was added in each well and incubated for 4 h. Then the media was removed carefully, and the reduced MTT was dissolved in 1:1 (v/v) DMSO/Methanol and absorbance was measured using multimode reader (Synergy H1, BioTek). Results were represented as percentage of viability={[A550(treated cells)−background]/[A550(untreated cells)−background]}×100. The result was summarized and provided as IC50 table in Table 1.
(§3) For combination treatment effect, cells were plated in 96 well plates at 5000 cells/well. […] Following 48 h of treatment cell viability was measured following above mentioned MTT study.

[5] = system: non-cancer cells CHO, COS-1 and NIH-3T3; experiment: MTT viability, tested non-cancer cells (combination treatment study, FIG. 1B); format: cell-based; conditions: 48 h; for toxicity in non-cancer cells: 10 μM (1+10C: 10 μM+10 μM)
Description: FIG. 1B: The viability studies of non-cancer cells CHO, COS-1 and NIIH-3T3 after 48 h of continuous treatment with compound 1 (10 μM), 10C [cationic lipid control molecule not containing progesterone moiety]
as §2, §3

[6] = system: MDA-MB-231 (PgR-negative); experiment: Cell cycle assay by flow cytometry (PI), MDA-MB-231; format: cell-based, human; conditions: MDA-MB-231, 10 μM, 24 h
Description: To measure the cellular DNA content, cell cycle assay was carried out. In this assay, first cells were synchronized at early S-phase by double thymidine blocking. When cell confluency was reached around 25-30% in 60 mm dish, cells were treated with 2 mM thymidine, diluted in 10% FBS containing DMEM, for 18 h to block cells at early S-phase. To release the blocking, media was discarded and washed with 1×PBS. Then the cells were incubated with fresh cell culture media containing 10% FBS for 9 h. After releasing, second blocking was done with 2 mM thymidine containing media for 17 h. After second blocking cells were released by discarding the thymidine supplemented media and kept in fresh media. All the respective treatments for cell cycle study were done after 2 h of second release.
S-phase synchronized cells were either kept untreated or treated with compound 1 (10 μM) and 6c (10 μM) for 24 h. Cells from different treatment groups were harvested, washed with 1×PBS, and fixed with 70% ethanol and kept at −20° C. for overnight. Then the ethanol was removed and washed with 1×PBS. […] After incubation cells were collected by centrifugation, washed with 1×PBS, re-suspended in 500 μL 1×PBS, and data was recorded using flow cytometer (FACS Canto II, Becton-Dickinson, San Jose, Calif., USA) and data were analyzed with FACS Diva software. […]

[7] = system: CHO; experiment: Apoptosis by flow cytometry (annexin V-FITC/PI), CHO; format: cell-based, Chinese hamster; conditions: 10 μM, 36 h
Description: Apoptosis study was performed by flow cytometry using annexin V-FITC-labeled apoptosis detection kit (Sigma) following manufacturer's protocol. Cells (□×□□^□ cells/well) were seeded in six-well plates and incubate for 16-18 h. After 16-18 h, cells were either kept untreated or treated with 10 μM compound 1 and 10 μM 6c for 36 h. Next, cells were trypsinized and washed with PBS. Then the cells were re-suspended in 1× binding buffer at a density of 1×10^6 cells/ml and stained simultaneously with FITC-labeled annexin V (25 ng/ml) and propidium iodide (50 ng/ml). After 15 min incubation, cells were analyzed using a flow cytometer (FACS Canto II, Becton-Dickinson, San Jose, Calif., USA), and data were analyzed with FCS Express V3 software. Minimum of 10000 events were gated per sample.

[8] = system: B16F10 tumor sections; experiment: TUNEL assay with VE-cadherin staining on tumor sections; format: in vivo, mice
Description: After completion of the in vivo experiment, one mouse from each group was sacrificed to check the apoptosis in tumor mass. First the tumors were frozen in Jung tissue medium (Leica Microsystem, Germany) followed by cryo-sectioning of 10 μm thin sections using Leica CM1850 cryostat (Germany). These were then fixed into 4% formalin for 15 min. TUNEL assay was carried out using Dead-End fluorometric apoptosis detection kit ([…]) following manufacturer's protocol. The same cryosections were washed with PBS and incubated with VE-cadherin mouse monoclonal antibody at 1:200 dilutions (Santa Cruz Biotech.) for 2 h at 4° C. to stain the blood vessel, followed by one hour incubation with goat anti-mouse IgG-PE (Santa Cruz Biotech.) secondary antibody; after that tissue sections were washed and observed under Nikon TE2000E microscope at 10× magnification.

SMILES	IC50 ([1]; MTT, 48 h continuous treatment)	IC50 ([2]; MCF7, MTT, 48 h continuous treatment)	IC50 ([3]; MTT, 48 h continuous treatment, non-cancer cell)	toxicity in cancer cells [4]	toxicity in non-cancer cells [5]	total cell population in G2/M phase [6]	IC50 ([1]; 48 h)	IC50 ([2]; MCF7, 48 h)	IC50 ([3]; 48 h)	cell killing in all tested cancer cells ([4]; 2.5 μM-40 μM)	toxicity towards tested non-cancer cells ([5]; 2.5 μM-40 μM)	apoptosis in normal cell [7]	extent of apoptosis induced in the blood vessel ([8]; TUNEL / VE-cadherin merge, tumor sections)	number of apoptotic cells in tumor compared to untreated or PR ([8]; TUNEL, tumor sections of treated mice)
CC(=O)[C@H]1CC[C@H]2[C@@H]3CCC4=CC(=O)CC[C@]4(C)[C@H]3CC[C@]12C [Compound 1, Progesterone]	> 20 µM	> 20 µM	> 20 µM	did not impart any significant toxicity	did not impart any significant toxicity	21%								
CCCCCCCCCC[N+](C)(CCCCCCCCCC)CCNC(=O)CCC(=O)O[C@@H](C)[C@H]1CCC2C3CCC4=CC(=O)CC[C@]4(C)C3CC[C@@]21C (stereo partly drawn) [Compound 6c, N-decyl-N-(2-(4-((1S)-1-((10R,13S,17S)-10,13-dimethyl-3-oxo-2,3,6,7,8,9,10,11,12,13,14, 15,16,17-tetradecahydro-1H-cyclopenta[a]phenanthren-17-yl)ethoxy)-4-oxobutanamido)ethyl)-N-methyldecan-1-aminium chloride]				significant toxicity only in cancer cells	not in non-cancerous cell	34%	4.32 ± 0.57 µM	7.33 ± 0.19 µM	17.3 ± 0.29 µM	significant amount of cell killing	largely non-toxic	largely remains unaffected	very high	significantly higher
